Test results taken from patent US11096942B2, “Heterocyclic compounds and uses thereof” (Celgene CAR LLC, priority 2010, dated 2021).
Where two headings read alike, the source gives them in different places.

How the values were obtained:
[1] = target: EGFR L858R/T790M (H1975 cells) (Homo sapiens (Human), UniProt P00533, L858R/T790M); assay: Phospho-EGFR signaling immunoblot (1 hr), H1975 cells; assay type: cell-based; settings: WT EGFR (A431) vs H1975
Description: (§1) A431 human epidermoid carcinoma, H1975 human NSCLC and HCC827 human NSCLC adenocarcinoma cells were obtained from the American Type Culture Center (Manassas, Va.). A431 cells were grown in DMEM (Invitrogen, Carlsbad, Calif.) supplemented with 10% FBS (HyClone, South Logan, Utah) and 1% Penicillin-Streptomycin (P/S, Lonza, Walkersville, Md.).
(§2) All primary antibodies were obtained from Cell Signaling (Danvers, Mass.) and used at 1:1000. Secondary antibodies were used at 1:10,000. Goat anti-mouse IgG IRDye 800CW antibody was obtained from LiCor Biosciences (Lincoln, Nebr.) and goat anti-rabbit IgG Alexa Fluor 680 was obtained from Invitrogen.
(§3) Cells were grown in 12-well plates (Corning, Coring, N.Y.) to 90% confluence and then incubated in low-serum (0.1% FBS) media for 16-18 hr. […] A431 cells were then stimulated with 50 ng/ml EGF (Peprotech, Rocky Hill, N.J.) for 15 min. After treatment, cell monolayers were washed with cold PBS (Invitrogen) and immediately lysed by scrapping into 60 uL cold Cell Extraction Buffer (Invitrogen) supplemented with Complete Protease inhibitors (Roche, Indianapolis, Ind.) and PhosphoSTOP (Roche) phosphatase inhibitors.
(§4) Phospho-protein signals were quantitated using Odyssey Infrared Imaging (Li-Cor Biosciences).
(§5) To assess phosphor-EGFR signaling, blots were probed with rabbit anti-Phospho-EGFR (Y1068) and mouse total anti-EGFR antibodies. Phospho-EGFR signal was normalized to total EGFR expression for each sample. […] Normalized data was fitted using a sigmoidal curve analysis program (Graph Pad Prism version 5) with variable Hill slope to determine the EC50 values.

[2] = target: EGFR delE746-A750 (HCC827 cells) (Homo sapiens (Human), UniProt P00533, DEL746-750); assay: Phospho-EGFR signaling immunoblot (1 hr), HCC827 cells; assay type: cell-based; settings: WT EGFR (A431) vs HCC827
Description: as §1, §2, §3, §4, §5

[3] = system: H1975 cells (EGFR L858R/T790M); assay: Cell proliferation (CellTiter Glo, 72 hr), H1975 cells; assay type: cell-based, human
Description: as §1
(§6) Cells were plated in Growth Media supplemented with 5% FBS and 1% P/S at a density of 3,000 cells per well in 96 well tissue culture plates (Corning). […] Growth inhibition (GI50) values were determined by Graph Pad Prism.

[4] = system: HCC827 cells (EGFR delE746-A750); assay: Cell proliferation (CellTiter Glo, 72 hr), HCC827 cells; assay type: cell-based, human
Description: as §1, §6

[5] = target: pEGFR in H1975 cells (Homo sapiens (Human), UniProt P00533, L858R/T790M); assay: Washout experiment in H1975 cells; assay type: cell-based; settings: 500 nM for 1 hr, then washout
Description: Washout Experiment in H1975 Cells Containing EGFR Deletion/T790M Mutation
Cells were plated in Growth Media supplemented with 10% FBS and 1% P/S at a density of 2.0×10^5 cells per well in 12 well tissue culture plates. Cells were allowed to settle down for 4 hrs and then maintained in low-serum (0.1% FBS) media overnight.
The following morning the media was removed and the cells were treated with 500 nM test compound in low-serum media for 1 hr. The cells were washed free of compound 2× with PBS (Invitrogen). One set of cells were immediately lysed as indicated above as the 0 hr time point. The remaining cells were incubated with complete RPMI-1640 growth media (10% FBS) for 1, 3, 6 and 24 hr. For the first 1 hr, cells were washed 2× with PBS every 30 min. DMSO (0.5%) controls were collected at the 0, 3, 6 and 24 hr time points.

[6] = proliferation, WT EGFR (A431) vs H1975
[7] = proliferation, WT EGFR (A431) vs HCC827

| SMILES | Ratio WT/mutant [1] | Ratio WT/mutant [2] | Ratio WT/mutant [3] | Ratio WT/mutant [4] | Ratio WT/mutant [3, 6] | Ratio WT/mutant [4, 7] | duration of action after compound removal [5] |
| --- | --- | --- | --- | --- | --- | --- | --- |
| C=CC(=O)Nc1cccc(Oc2nc(Nc3ccc(N4CCN(C(=O)OC(C)(C)C)CC4)cc3OC)ncc2Cl)c1 [Compound I-46, tert-butyl 4-(4-(4-(3-acrylamidophenoxy)-5-chloropyrimidin-2-ylamino)-3-methoxyphenyl)piperazine-1-carboxylate] | >10 | >50 | >1 | >10 |  |  |  |
| C=CC(=O)Nc1cccc(Nc2nc(Nc3ccc(N4CCN(C(=O)CO)CC4)cc3OC)ncc2Cl)c1 [Compound I-12, N-(3-(5-chloro-2-(4-(4-(2-hydroxyacetyl)piperazin-1-yl)-2-methoxyphenylamino)pyrimidin-4-ylamino)phenyl)acrylamide] | >1 |  |  |  | >1 | >30 |  |
| C=CC(=O)Nc1cccc(Nc2nc(Nc3ccc(N4CCN(C(C)=O)[C@H](C(=O)OC)C4)cc3OC)ncc2C(F)(F)F)c1 [Compound I-48, (S)-methyl 1-acetyl-4-(4-(4-(3-acrylamidophenylamino)-5-(trifluoromethyl)pyrimidin-2-ylamino)-3-methoxyphenyl)piperazine-2-carboxylate] | >50 |  |  |  | >10 | >15 |  |
| C=CC(=O)Nc1cccc(Nc2nc(Nc3ccc(N4CCN(C(=O)CO)CC4)cc3OC)ncc2C(F)(F)F)c1 [Compound I-6, N-(3-(2-(4-(4-(2-hydroxyacetyl)piperazin-1-yl)-2-methoxyphenylamino)-5-(trifluoromethyl)pyrimidin-4-ylamino)phenyl)acrylamide] | >20 |  |  |  | >10 | >40 |  |
| C=CC(=O)Nc1cccc(Nc2nc(Nc3ccc(N4CCN(C(C)=O)CC4)cc3OC)ncc2Br)c1 [Compound I-40, N-(3-(2-(4-(4-acetylpiperazin-1-yl)-2-methoxyphenylamino)-5-bromopyrimidin-4-ylamino)phenyl)acrylamide] | >1 |  |  |  | >5 | >10 |  |
| C=CC(=O)Nc1cccc(Nc2nc(Nc3ccc(N4CCOCC4)cc3OC(F)F)ncc2C(F)(F)F)c1 [Compound I-14, N-(3-(2-(2-(difluoromethoxy)-4-morpholinophenylamino)-5-(trifluoromethyl)pyrimidin-4-ylamino)phenyl)acrlamide] | >15 | >15 |  |  | >5 | >10 |  |
| C=CC(=O)Nc1cccc(Nc2nc(Nc3ccc(N4CCCN(C(C)=O)CC4)cc3OC)ncc2C(F)(F)F)c1 [Compound I-7, N-(3-(2-(4-(4-acetyl-1,4-diazepan-1-yl)-2-methoxyphenylamino)-5-(trifluoromethyl)pyrimidin-4-ylamino)phenyl)acrylamide] | >5 |  |  |  | >1 | >10 |  |
| C=CC(=O)Nc1cccc(Nc2nc(Nc3ccc(N4CCOCC4)cc3OC)ncc2C(F)(F)F)c1 [Compound I-2, N-(3-(2-(2-methoxy-4-morpholinophenylamino)-5-(trifluoromethyl)pyrimidin-4-ylamino)phenyl)acrylamide] | >50 |  |  |  | >20 | >40 | prolonged duration of action after compound removal |
| C=CC(=O)Nc1cccc(Nc2nc(Nc3ccc(N4CCN(C(C)=O)CC4)cc3OC)ncc2C(F)(F)F)c1 [Compound I-4, N-(3-(2-(4-(4-acetylpiperazin-1-yl)-2-methoxyphenylamino)-5-(trifluoromethyl)pyrimidin-4-ylamino)phenyl)acrylamide] |  |  |  |  |  |  | prolonged duration of action after compound removal |

More lines, main results first:

| Ratio WT/mutant [1] | Ratio WT/mutant [2] | SMILES | Ratio WT/mutant [3] | Ratio WT/mutant [4] | Ratio WT/mutant [3, 6] | Ratio WT/mutant [4, 7] | duration of action after compound removal [5] |
| --- | --- | --- | --- | --- | --- | --- | --- |
| >30 | >5 | C=CC(=O)Nc1cccc(Nc2nc(Nc3ccc(N4CCN(S(C)(=O)=O)CC4)cc3OC)ncc2C(F)(F)F)c1 [Compound I-17, N-(3-(2-(2-methoxy-4-(4-(methylsulfonyl)piperazin-1-yl)phenylamino)-5-(trifluoromethyl)pyrimidin-4-ylamino)phenyl)acrylamide] |  |  | >10 | >15 |  |
| >5 |  | C=CC(=O)Nc1cccc(Oc2nc(Nc3ccc(N4CCN(C(=O)CO)CC4)cc3OC)ncc2Cl)c1 [Compound I-3, N-(3-(5-chloro-2-(4-(4-(2-hydroxyacetyl)piperazin-1-yl)-2-methoxyphenylamino)pyrimidin-4-yloxy)phenyl)acrylamide] |  |  | >5 | >45 |  |
| >1 |  | C=CC(=O)Nc1cccc(Nc2nc(Nc3ccc(N4CCN(C(C)=O)CC4)cc3OC)ncc2Cl)c1 [Compound I-8, N-(3-(2-(4-(4-acetylpiperazin-1-yl)-2-methoxyphenylamino)-5-chloropyrimidin-4-ylamino)phenyl)acrylamide] |  |  | >1 | >20 |  |
| >50 |  | C=CC(=O)Nc1cccc(Oc2nc(Nc3ccc(N4CCOCC4)cc3OC)ncc2C(F)(F)F)c1 [Compound I-1, N-(3-(2-(2-methoxy-4-morpholinophenylamino)-5-(trifluoromethyl)pyrimidin-4-yloxy)phenyl)acrylamide] |  |  | >15 | >15 |  |
| >40 |  | C=CC(=O)Nc1cccc(Oc2nc(Nc3ccc(N4CCN(S(C)(=O)=O)CC4)cc3OC)ncc2Cl)c1 [Compound I-26, N-(3-(5-chloro-2-(2-methoxy-4-(4-(methylsulfonyl)piperazin-1-yl)phenylamino)pyrimidin-4-yloxy)phenyl)acrylamide] |  |  | >1 | >35 |  |
| >30 |  | C=CC(=O)Nc1cccc(Oc2nc(Nc3ccc(N4CCOCC4)cc3OC)ncc2Cl)c1 [Compound I-5, N-(3-(5-chloro-2-(2-methoxy-4-morpholinophenylamino)pyrimidin-4-yloxy)phenyl)acrylamide] |  |  | >5 | >20 |  |
| >15 |  | C=CC(=O)Nc1cccc(Oc2nc(Nc3ccc(N4CCN(C(=O)CO)CC4)cc3OC)ncc2C(F)(F)F)c1 [Compound I-11, N-(3-(2-(4-(4-(2-hydroxyacetyl)piperazin-1-yl)-2-methoxyphenylamino)-5-(trifluoromethyl)pyrimidin-4-yloxy)phenyl)acrylamide] |  |  | >5 | >45 |  |
| >5 |  | C=CC(=O)Nc1cccc(Oc2nc(Nc3ccc(N4CCN(C(=O)NC)CC4)cc3OC)ncc2C(F)(F)F)c1 [Compound I-21, 4-(4-(4-(3-acrylamidophenoxy)-5-(trifluoromethyl)pyrimidin-2-ylamino)-3-methoxyphenyl)-N-methylpiperazine-1-carboxamide] |  |  | >1 | >20 |  |
